In PubChem BioAssay AID977626 (Broad Institute, 2014):
Results filed as inconclusive are left out. Activity calls are given as the source filed them. No rule for the calls is given here.

Tests used:
[1] = growth inhibition of G2058-humanized E. coli versus wild-type, dose response, G2058 mutant GFP vs wild-type RFP, cherry-pick, OD600 (AID 977626); conditions: E. coli WT-RFP vs G2058 humanized-GFP mixed culture, fluorescence; at 50 µM (top of the series)
[2] = test system: E. coli WT-RFP vs G2058 humanized-GFP mixed culture, fluorescence; test: as above
[3] = E. coli WT-RFP vs G2058 humanized-GFP mixed culture, measured here: total growth OD600
[4] = measured here: G2058 humanized mutant strain GFP

In the case of `O=C(O)c1cc([N+](=O)[O-])ccc1NCc1ccccc1`, the activity change, negative = inhibition [1] is reported as 23.8 (inactive), the AC50 [2, 3] is reported as 14.4 µM and the AC50 [2, 4] is reported as 38.9 µM.
For `COc1ccc(Nc2oc(-c3ccco3)nc2S(=O)(=O)c2ccc(F)cc2)cc1`, the AC50 [2] was 3.67 µM.
For `CCN(CC)CCn1c2ccccc2c2nc3ccc([N+](=O)[O-])cc3cc21`, the activity change, negative = inhibition [1] was 26.7 (inactive), the AC50 [2, 3] was 4.58 µM and the AC50 [2, 4] was 5.66 µM.
For `Cc1ccc(C)c(NC(=O)CSc2nc3nc(-c4cccs4)cc(C(F)(F)F)c3c(=O)[nH]2)c1`, the activity change, negative = inhibition [1] was -7.41 (inactive), the AC50 [2, 3] was 8.26 µM and the AC50 [2, 4] was 9.81 µM.
`COc1ccc(NC(=O)c2ccc(-c3ccc([N+](=O)[O-])cc3)o2)cc1` showed an AC50 [2] of 2.63 µM, an AC50 [2, 3] of 5.22 µM and an AC50 [2, 4] greater than 100 µM.
For `COc1ccc(Cn2c(-c3ccc(Cl)cc3)c[n+]3ccccc23)cc1`, the activity change, negative = inhibition [1] was -3.75 (inactive) and the AC50 [2, 3] was 45.6 µM.
`COC(=O)c1c(NC(=O)CCC(=O)O)sc(Cc2ccccc2)c1C` showed an AC50 [2] of 9.22 µM, an AC50 [2, 3] of 3.27 µM and an AC50 [2, 4] of 3.03 µM.
